Assay results: PMC9271885 (eBioMedicine, 2022)
“And” between values parts separate entries of the source, which are not always exact repeats. Equal values may be shown once.

Key:
[1] = Clinical course of the disease in infected hamsters (normalized weight, clinical signs); format: in vivo, Syrian hamsters; settings: Favipiravir IP 926mg/kg/day BID, inoculum 104 TCID50, sacrifice day 3, Figure 3, individual animals
Description: Three-week-old female Syrian hamsters were provided by Janvier Labs (SPF status). Animals were maintained in ISOcage P - Bioexclusion System (Techniplast) with unlimited access to water/food and 14h/10h light/dark cycle. A wooden gnawing block and extra bedding material was provided as cage enrichment. Animals were weighed and monitored daily for the duration of the study to detect the appearance of any clinical signs of illness/suffering. General anesthesia was obtained with isoflurane (Isoflurin®, Axience). Euthanasia, which was also realized under general anesthesia, was performed by cervical dislocation.
Groups of 6 hamsters were intranasally infected with 10^4 TCID50 of virus. a Experimental timeline. b, f, j Viral replication in lung based on infectious titers (measured using a TCID50 assay) expressed in TCID50/g of lung (n=6 animals/group). c, g, k Viral replication in lung based on viral RNA yields (measured using an RT-qPCR assay) expressed in viral genome copies/g of lung (n=6 animals/group). d, h, l Plasma viral loads (measured using an RT-qPCR assay) are expressed in viral genome copies/mL of plasma (the dotted line indicates the detection threshold of the assay) (n=6 animals/group). e, i, m Clinical course of the disease (n=6 animals/group). Normalized weight at day n was calculated as follows: % of initial weight of the animal at day n. Data represent mean ± SD (Details in Supplementary Data 2).

SARS-CoV-2 = test: Hamster model of SARS-CoV-2 infection, oral NTZ treatment (lung infectious titers, lung viral RNA yields, plasma viral loads); format: in vivo, Syrian hamsters; design: Lung Infectious titers / Plasmatic viral RNA yields / Lung Viral RNA yields: unit not given here
[2] = FVP 926mg/kg/day BID intraperitoneally, 3 dpi
[3] = Favipiravir IP 926mg/kg/day BID, inoculum 104 TCID50, sacrifice day 3, Figure 3, individual animals, 926 mg/kg/day

SMILES: NC(=O)c1nc(F)c[nH]c1=O [FVP, favipiravir]
- Normalized weights Day 0 [1]: 100
- Normalized weights Day 1 ([1]; 926 mg/kg/day): 104.7 and 102.8 and 102.5 and 104.5 and 103.7 and 104.9
- Normalized weights Day 2 ([1]; 926 mg/kg/day): 101.3 and 102.5 and 100.8 and 100.6 and 94.2 and 104.4
- Normalized weights Day 3 ([1]; 926 mg/kg/day): 97.1 and 105.0 and 92.2 and 91.0 and 105.5 and 105.7
- infectious titers in clarified lung homogenates vs untreated animals (SARS-CoV-2; [2]): significant reductions
- viral RNA yields in clarified lung homogenates vs untreated animals (SARS-CoV-2; [2]): significant reductions
- Lung Infectious titers (SARS-CoV-2; [3]): 6.755 and 6.354 and 7.035 and 6.515 and 6.109 and 6.625
- Lung Viral RNA yields (SARS-CoV-2; [3]): 6.542 and 6.443 and 6.907 and 6.536 and 6.197 and 6.702
- Plasmatic viral RNA yields (SARS-CoV-2; Favipiravir IP 926mg/kg/day BID, inoculum 104 TCID50, sacrifice day 3, Figure 3, individual animals, ¤ : Detection threshold at 1000 cp/ml, 926 mg/kg/day): 3.034 and 2.169 and 2.511 and 5.618
